For one molecule, IC50 results are on record in patent US6075054A, “Ortho-substituted benzoylguanidines, process for their preparation, their use as a medicament or diagnostic, and medicament comprising them” (Hoechst Aktiengesellschaft, priority 1997, dated 2000).

Counter-ions that a name gives are not always drawn.

In the experiment the target is T1, Na^+ /H^+ exchanger of rabbit erythrocytes (Oryctolagus cuniculus, UniProt P23791).
T1 construct: endogenous in cells; host or cells: erythrocytes in whole blood of White New Zealand rabbits (Ivanovas) fed 2% cholesterol
As to the kind of experiment: Inhibition of the Na^+ /H^+ exchanger of rabbit erythrocytes (amiloride-sensitive sodium influx, flame photometry). Format: cell-based, rabbit (White New Zealand). The following applies: erythrocytes of rabbits on 2% cholesterol diet; hyperosmolar salt-sucrose medium, pH 7.4, 37° C. An excerpt:
Inhibition of the Na^+ /H^+ exchanger of rabbit erythrocytes White New Zealand rabbits (Ivanovas) received a standard diet with 2% cholesterol for six weeks in order to activate the Na^+ /H^+ exchange and thus to be able to determine the Na^+ -influx into the erythrocytes via Na^+ /H^+ exchange by flame photometry. The blood was taken from the auricular arteries and rendered incoagulable by 25 IU of potassium-heparin. A part of each sample was used for the duplicate determination of the hematocrits by centrifugation. Aliquots of 100 μl in each case were used for the measurement of the Na^+ starting content of the erythrocytes.
In order to determine the amiloride-sensitive sodium influx, 100 μl of each blood sample were incubated in 5 ml in each case of a hyperosmolar salt-sucrose medium (mmol/l: 140 NaCl, 3 KCl, 150 sucrose, 0.1 ouabain, 20 tris-hydroxymethylaminomethane) at pH 7.4 and 37° C. The erythrocytes were then washed three times with ice-cold MgCl2 -ouabain solution (mmol/l: 112 MgCl2, 0.1 ouabain) and hemolyzed in 2.0 ml of distilled water. The intracellular sodium content was determined by flame photometry.
The Na^+ net influx was calculated from the difference between sodium starting values and the sodium content of the erythrocytes after incubation. […]

T1 sequence (P23791 whole entry): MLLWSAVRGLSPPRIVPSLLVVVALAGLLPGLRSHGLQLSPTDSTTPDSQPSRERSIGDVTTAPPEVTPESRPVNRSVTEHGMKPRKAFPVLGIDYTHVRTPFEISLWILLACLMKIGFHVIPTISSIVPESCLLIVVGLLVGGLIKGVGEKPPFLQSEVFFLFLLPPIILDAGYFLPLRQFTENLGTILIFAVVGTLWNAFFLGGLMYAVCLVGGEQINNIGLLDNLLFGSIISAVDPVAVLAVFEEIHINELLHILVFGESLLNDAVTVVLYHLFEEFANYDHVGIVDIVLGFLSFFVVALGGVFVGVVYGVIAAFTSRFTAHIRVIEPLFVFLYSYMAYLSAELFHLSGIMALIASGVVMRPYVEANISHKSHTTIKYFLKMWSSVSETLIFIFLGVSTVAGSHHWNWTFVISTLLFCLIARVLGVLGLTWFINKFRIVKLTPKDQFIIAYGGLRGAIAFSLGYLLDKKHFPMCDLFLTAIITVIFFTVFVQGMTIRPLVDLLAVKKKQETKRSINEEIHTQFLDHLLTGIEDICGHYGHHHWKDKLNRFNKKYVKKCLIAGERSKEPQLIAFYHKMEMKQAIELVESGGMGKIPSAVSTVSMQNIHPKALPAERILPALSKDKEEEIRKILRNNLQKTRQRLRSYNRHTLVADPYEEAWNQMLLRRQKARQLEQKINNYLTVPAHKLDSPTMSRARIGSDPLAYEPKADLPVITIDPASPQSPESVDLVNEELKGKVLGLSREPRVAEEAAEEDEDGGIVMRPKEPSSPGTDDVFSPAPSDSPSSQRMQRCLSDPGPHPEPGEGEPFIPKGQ

Consider `Cc1cc(C(C)CO)c(C(F)(F)F)cc1C(=O)N=C(N)N` (racemic) [Example 1, hydrochloride], for which the IC50 was 1.2 nM.

The term IC50 denotes the concentration needed to halve the response being measured.
